Measured values reported in PMC2248166, “Quantitative peptide binding motifs for 19 human and mouse MHC class I molecules derived using positional scanning combinatorial peptide libraries” (Immunome Research, 2008).
Where a SMILES comes first, the peptide text is derived from it.

Target: HLA A*3201 (Homo sapiens, UniProt P04439, A270S/D101S/D185E/E176V/E277Q/F133L/G103R/G107R/G231S/H175R/I121M/I218V/I322F/K168Q/L105A/L300P/L318F/M331R/P208A/P217A/Q94H/R106L/R138Q/S129P/T104I/T323A/T345S/V100E/V321M/V358M)
Assay: biochemical
Assay type: binding

Row | SMILES | IC50
1 | CC(C)C[C@H](NC(=O)[C@@H](N)C(C)C)C(=O)N[C@@H](Cc1ccc(O)cc1)C(=O)N[C@@H](CC(N)=O)C(=O)N[C@@H](CC(N)=O)C(=O)N[C@H](C(=O)N[C@H](C(=O)N[C@@H](CCC(=O)O)C(=O)N[C@@H](Cc1ccccc1)C(=O)O)C(C)C)C(C)C [3102.0424] (H-VLYNNVVEF-OH) | 1.5 nM
2 | CC[C@H](C)[C@H](NC(=O)[C@@H](N)CO)C(=O)N[C@@H](Cc1ccc(O)cc1)C(=O)N[C@@H](CCCNC(=N)N)C(=O)N[C@@H](CCSC)C(=O)N[C@@H](CO)C(=O)N[C@@H](Cc1ccc(O)cc1)C(=O)N[C@@H](CCC(N)=O)C(=O)N[C@@H](Cc1ccccc1)C(=O)O [3102.0425] (H-SIYRMSYQF-OH) | 0.8 nM
3 | CSCC[C@H](NC(=O)[C@H](C)NC(=O)[C@@H](N)CC(C)C)C(=O)N[C@@H](CC(N)=O)C(=O)N[C@@H](CO)C(=O)N[C@H](C(=O)N[C@@H](Cc1ccccc1)C(=O)N[C@H](C(=O)N[C@@H](Cc1ccccc1)C(=O)O)[C@@H](C)O)C(C)C [3102.0426] (H-LAMNSVFTF-OH) | 16 nM
4 | CC[C@H](C)[C@H](NC(=O)[C@H](CC(C)C)NC(=O)[C@@H](NC(=O)[C@H](CC(N)=O)NC(=O)[C@H](CC(N)=O)NC(=O)[C@H](CO)NC(=O)[C@H](Cc1ccccc1)NC(=O)[C@H](CCSC)NC(=O)[C@@H](N)CCCCN)C(C)C)C(=O)O [3102.0427] (H-KMFSNNVLI-OH) | 1.1 nM
5 | CC[C@H](C)[C@H](NC(=O)[C@H](CC(C)C)NC(=O)[C@@H](N)CCCNC(=N)N)C(=O)N[C@@H](CC(N)=O)C(=O)N[C@@H](CC(N)=O)C(=O)N[C@@H](CCCNC(=N)N)C(=O)N[C@H](C(=O)N[C@@H](CC(C)C)C(=O)N[C@@H](Cc1ccccc1)C(=O)O)C(C)C [3102.0428] (H-RLINNRVLF-OH) | 5.7 nM
6 | CC[C@H](C)[C@H](NC(=O)[C@H](CCCCN)NC(=O)[C@H](Cc1ccccc1)NC(=O)[C@H](CC(N)=O)NC(=O)[C@H](CC(N)=O)NC(=O)[C@H](Cc1ccccc1)NC(=O)[C@H](CC(C)C)NC(=O)[C@@H](NC(=O)[C@@H](N)CCCNC(=N)N)C(C)C)C(=O)O [3102.0429] (H-RVLFNNFKI-OH) | 0.89 nM
7 | CC[C@H](C)[C@H](NC(=O)[C@@H](NC(=O)[C@H](CC(N)=O)NC(=O)[C@H](Cc1ccccc1)NC(=O)[C@H](Cc1ccccc1)NC(=O)[C@@H](NC(=O)[C@@H](NC(=O)[C@@H](NC(=O)[C@@H](N)CCCCN)C(C)C)C(C)C)[C@@H](C)CC)[C@@H](C)O)C(=O)O [3102.0430] (H-KVVIFFNTI-OH) | 8.3 nM
8 | CC[C@H](C)[C@H](NC(=O)[C@@H](NC(=O)[C@@H](NC(=O)[C@H](CC(N)=O)NC(=O)[C@H](Cc1ccccc1)NC(=O)[C@H](Cc1ccccc1)NC(=O)[C@@H](NC(=O)[C@@H](NC(=O)[C@@H](N)C(C)C)C(C)C)[C@@H](C)CC)[C@@H](C)O)[C@@H](C)CC)C(=O)O [3102.0431] (H-VVIFFNTII-OH) | 15 nM
9 | CC[C@H](C)[C@H](NC(=O)[C@H](CC(N)=O)NC(=O)[C@H](CC(N)=O)NC(=O)[C@H](CC(C)C)NC(=O)[C@@H](NC(=O)[C@H](CC(N)=O)NC(=O)[C@H](Cc1ccc(O)cc1)NC(=O)[C@H](CC(C)C)NC(=O)[C@@H](N)Cc1c[nH]cn1)[C@@H](C)CC)C(=O)O [3102.0432] (H-HLYNILNNI-OH) | 73 nM
10 | CC[C@H](C)[C@H](NC(=O)[C@H](CO)NC(=O)[C@@H](NC(=O)[C@H](CCCCN)NC(=O)CNC(=O)[C@H](Cc1ccccc1)NC(=O)[C@H](Cc1ccccc1)NC(=O)[C@@H](NC(=O)[C@@H](N)CCCNC(=N)N)[C@@H](C)CC)[C@@H](C)O)C(=O)O [3102.0433] (H-RIFFGKTSI-OH) | 1.3 nM
11 | CC[C@H](C)[C@H](NC(=O)[C@@H](NC(=O)[C@@H](NC(=O)[C@H](CCCCN)NC(=O)[C@H](CC(N)=O)NC(=O)[C@H](CC(N)=O)NC(=O)[C@H](C)NC(=O)[C@H](CC(C)C)NC(=O)[C@@H](N)CCCNC(=N)N)C(C)C)[C@@H](C)O)C(=O)O [3102.0434] (H-RLANNKVTI-OH) | 1.5 nM
12 | CC[C@H](C)[C@H](N)C(=O)N[C@H](C(=O)N[C@H](C(=O)N[C@@H](Cc1ccccc1)C(=O)N[C@@H](Cc1ccccc1)C(=O)N[C@H](C(=O)N[C@H](C(=O)N[C@@H](CC(C)C)C(=O)N[C@H](C(=O)O)[C@@H](C)CC)C(C)C)[C@@H](C)CC)[C@@H](C)CC)[C@@H](C)CC [3102.0435] (H-IIIFFIVLI-OH) | 14 nM
13 | CC[C@H](C)[C@H](N)C(=O)N[C@H](C(=O)N[C@@H](Cc1ccccc1)C(=O)N[C@@H](Cc1ccccc1)C(=O)N[C@H](C(=O)N[C@H](C(=O)N[C@@H](CC(C)C)C(=O)N[C@H](C(=O)N[C@@H](CC(C)C)C(=O)O)[C@@H](C)CC)C(C)C)[C@@H](C)CC)[C@@H](C)CC [3102.0436] (H-IIFFIVLIL-OH) | 12 nM
14 | CC[C@H](C)[C@H](NC(=O)CNC(=O)[C@@H](NC(=O)[C@H](C)NC(=O)[C@@H](NC(=O)[C@H](CCCNC(=N)N)NC(=O)[C@H](CCSC)NC(=O)[C@H](CC(C)C)NC(=O)[C@@H](N)CCSC)C(C)C)C(C)C)C(=O)O [3102.0437] (H-MLMRVAVGI-OH) | 0.69 nM
15 | CC(C)C[C@H](NC(=O)[C@H](CO)NC(=O)[C@H](CC(N)=O)NC(=O)[C@H](CCCNC(=N)N)NC(=O)[C@H](CC(C)C)NC(=O)CNC(=O)[C@H](Cc1ccc(O)cc1)NC(=O)[C@@H](NC(=O)[C@@H](N)CCCNC(=N)N)[C@@H](C)O)C(=O)O [3102.0438] (H-RTYGLRNSL-OH) | 0.63 nM
16 | CC[C@H](C)[C@H](NC(=O)CNC(=O)[C@H](CC(N)=O)NC(=O)[C@H](CO)NC(=O)[C@@H](NC(=O)CNC(=O)[C@H](CC(N)=O)NC(=O)[C@@H](NC(=O)CN)[C@@H](C)O)[C@@H](C)CC)C(=O)O [3102.0439] (H-GTNGISNGI-OH) | 20 nM
17 | CC[C@H](C)[C@H](NC(=O)[C@H](CCC(=O)O)NC(=O)[C@H](CS)NC(=O)[C@@H](NC(=O)[C@@H](N)CO)[C@@H](C)CC)C(=O)N[C@H](C(=O)N[C@@H](Cc1ccc(O)cc1)C(=O)N[C@@H](CO)C(=O)N[C@@H](Cc1ccccc1)C(=O)O)C(C)C [3102.0440] (H-SICEIVYSF-OH) | 0.35 nM
18 | CC[C@H](C)[C@H](N)C(=O)N[C@H](C(=O)N[C@@H](Cc1c[nH]c2ccccc12)C(=O)N[C@@H](CCCCN)C(=O)NCC(=O)N[C@H](C(=O)N[C@@H](Cc1ccc(O)cc1)C(=O)N[C@H](C(=O)N[C@@H](Cc1ccc(O)cc1)C(=O)O)[C@@H](C)O)[C@@H](C)CC)[C@@H](C)CC [3102.0441] (H-IIWKGIYTY-OH) | 3.3 nM
19 | CC(C)C[C@H](NC(=O)[C@H](CO)NC(=O)[C@@H](N)CCCCN)C(=O)N[C@@H](CCCCN)C(=O)N[C@@H](CCCCN)C(=O)N[C@H](C(=O)N[C@@H](Cc1ccc(O)cc1)C(=O)N[C@H](C(=O)N[C@@H](Cc1ccccc1)C(=O)O)[C@@H](C)O)C(C)C [3102.0442] (H-KSLKKVYTF-OH) | 0.49 nM
20 | CC[C@H](C)[C@H](NC(=O)[C@H](CO)NC(=O)[C@H](CCCCN)NC(=O)[C@H](Cc1ccccc1)NC(=O)[C@H](CC(C)C)NC(=O)[C@@H](NC(=O)[C@@H](N)CCSC)[C@@H](C)O)C(=O)N[C@@H](CC(C)C)C(=O)N[C@@H](Cc1ccccc1)C(=O)O [3102.0443] (H-MTLFKSILF-OH) | 11 nM
21 | CC[C@H](C)[C@H](NC(=O)[C@H](CO)NC(=O)[C@H](C)NC(=O)[C@H](Cc1ccc(O)cc1)NC(=O)[C@@H](NC(=O)[C@H](CCC(=O)O)NC(=O)[C@H](CC(N)=O)NC(=O)[C@@H](NC(=O)[C@@H](N)CC(C)C)[C@@H](C)O)[C@@H](C)CC)C(=O)O [3102.0445] (H-LTNEIYASI-OH) | 13 nM
